IC50 data for 46 compounds are collected here from publication PMC5863483, “Low HLA binding of diabetes-associated CD8+ T-cell epitopes is increased by post translational modifications” (BMC Immunology, 2018).

*1 amine or outer side, *2 acyl side, *3 side chain or, on linkers, in order; H or OH if unused. Where a SMILES comes first, the peptide text is derived from it. Where no end group is shown, it is not given here. [ ]: non-standard residue; d: D form. γGlu = O=C(O)[C@H](CCC(=O)[*:2])N[*:1]; Cya = N[C@@H](CS(=O)(=O)O)C(=O)O; Cit = NC(=O)NCCC[C@H](N)C(=O)O

For the first experiment, the target named is HLA-A*02:01 (Homo sapiens, UniProt P04439, D140Y/D185E/D98H/E176V/E277Q/G131W/G231S/I119V/I121R/I166T/I218V/L300P/L318F/N151K/N90K/P208A/P217A/Q86G/Q94H/R138H/R169H/T345S). Kind of experiment: HLA-peptide competition binding assay, A*02:01.
Details: not given
LLSILCIWV [reference compound] had an IC50 of 734 nM.
For the compound `CSCC[C@H](NC(=O)[C@@H](N)Cc1c[nH]c2ccccc12)C(=O)N[C@@H](CCCNC(N)=O)C(=O)N[C@@H](CC(C)C)C(=O)N[C@@H](CC(C)C)C(=O)N1CCC[C@H]1C(=O)N[C@@H](CC(C)C)C(=O)N[C@@H](CC(C)C)C(=O)N[C@@H](C)C(=O)O` (H-WM[Cit]LLPLLA-OH), the IC50 came out at 1010 nM.

The experiment is the same for the next values; noted with them: post-translationally modified insulin peptide; competition binding assay; a dash indicates IC50 >40,000 nM; read-out: A*02:01 binding (IC50 nM) Modified.
As for GERGYYYTPK, the IC50 was greater than 40000 nM.
In the case of GERGYFYTP, the IC50 is greater than 40000 nM.
Still for that read-out and setting: to `CC(C)C[C@H](NC(=O)[C@H](Cc1c[nH]cn1)NC(=O)[C@H](CCC(N)=O)NC(=O)[C@H](CC(N)=O)NC(=O)[C@@H](NC(=O)[C@@H](N)Cc1ccccc1)C(C)C)C(=O)N[C@@H](CS(=O)(=O)O)C(=O)NCC(=O)N[C@@H](CO)C(=O)O` [FVNQHLBGS] (H-FVNQHL[Cya]GS-OH; N-terminus and C-terminus assumed) belongs greater than 40000 nM; to `CC[C@H](C)[C@H](NC(=O)CNC(=O)[C@H](CCCNC(N)=O)NC(=O)[C@H](CCCCN)NC(=O)[C@H](CCC(N)=O)NC(=O)[C@@H](N)CC(C)C)C(=O)N[C@H](C(=O)N[C@@H](CCC(=O)O)C(=O)N[C@@H](CCC(N)=O)C(=O)O)C(C)C` (H-LQK[Cit]GIVEQ-OH; N-terminus and C-terminus assumed), greater than 40000 nM; to `CC(C)C[C@H](NC(=O)[C@H](CC(=O)O)NC(=O)[C@H](CCC(=O)O)NC(=O)[C@H](C)NC(=O)[C@H](CCC(=O)O)NC(=O)[C@H](CCCNC(N)=O)NC(=O)[C@@H](N)CCCNC(N)=O)C(=O)N[C@@H](CCC(N)=O)C(=O)N[C@H](C(=O)O)C(C)C` (H-[Cit][Cit]EAEDLQV-OH; N-terminus and C-terminus assumed), greater than 40000 nM.
In the case of `C[C@H](NC(=O)[C@H](CCC(=O)O)NC(=O)[C@H](CCCNC(N)=O)NC(=O)[C@H](CCCNC(N)=O)NC(=O)[C@@H](NC(=O)[C@H](CCCCN)NC(=O)[C@@H]1CCCN1C(=O)[C@@H](N)[C@@H](C)O)[C@@H](C)O)C(=O)N[C@@H](CCC(=O)O)C(=O)N[C@@H](CC(=O)O)C(=O)O` [TPKTUUEAED] (H-TPKT[Cit][Cit]EAED-OH; N-terminus and C-terminus assumed), the IC50 is greater than 40000 nM.
Regarding `CC[C@H](C)[C@H](NC(=O)CNC(=O)[C@H](CCCNC(N)=O)NC(=O)[C@H](CCCCN)NC(=O)[C@H](CCC(N)=O)NC(=O)[C@H](CC(C)C)NC(=O)[C@H](CO)NC(=O)CN)C(=O)N[C@H](C(=O)O)C(C)C` (H-GSLQK[Cit]GIV-OH; N-terminus and C-terminus assumed), the IC50 is greater than 40000 nM.
For the compound `CC(C)C[C@H](N)C(=O)N[C@H](C(=O)N[C@@H](CS(=O)(=O)O)C(=O)NCC(=O)N[C@@H](CCC(=O)O)C(=O)N[C@@H](CCCNC(=N)N)C(=O)NCC(=O)N[C@@H](Cc1ccc(O)cc1)C(=O)N[C@@H](Cc1ccc(O)cc1)C(=O)N[C@@H](Cc1ccc(O)cc1)C(=O)O)C(C)C` [LVBGERGYYY] (H-LV[Cya]GERGYYY-OH; N-terminus and C-terminus assumed), the IC50 is greater than 40000 nM.
On to `CC(C)C[C@H](NC(=O)[C@H](Cc1c[nH]cn1)NC(=O)CC[C@H](N)C(=O)O)C(=O)N[C@@H](CS)C(=O)NCC(=O)N[C@@H](CO)C(=O)N[C@@H](Cc1c[nH]cn1)C(=O)N[C@@H](CC(C)C)C(=O)N[C@H](C(=O)O)C(C)C` [ZHLCGSHLV] (γGlu-HLCGSHLV-OH; N-terminus and C-terminus assumed), for which the IC50 was greater than 40000 nM.
Turning to ERGYFYTPK, the IC50 is greater than 40000 nM.

The experiment is the same for the next values; noted with them: post-translationally modified insulin-derived peptide; radiolabeled ligand competition, purified MHC, two-day incubation, three or more independent experiments; read-out: A*02:01 binding, Modified.
Turning to `CSCC[C@H](NC(=O)[C@H](Cc1c[nH]c2ccccc12)NC(=O)[C@@H](N)CC(C)C)C(=O)N[C@@H](CCCNC(N)=O)C(=O)N[C@@H](CC(C)C)C(=O)N[C@@H](CC(C)C)C(=O)N1CCC[C@H]1C(=O)N[C@@H](CC(C)C)C(=O)N[C@@H](CC(C)C)C(=O)N[C@@H](C)C(=O)O` (H-LWM[Cit]LLPLLA-OH), the IC50 amounted to 61 nM.
`CC(C)C[C@H](NC(=O)[C@@H](N)Cc1ccc(O)cc1)C(=O)N[C@H](C(=O)N[C@@H](CS(=O)(=O)O)C(=O)NCC(=O)N[C@@H](CCC(=O)O)C(=O)N[C@@H](CCCNC(=N)N)C(=O)NCC(=O)N[C@@H](Cc1ccc(O)cc1)C(=O)O)C(C)C` [YLVBGERGY] (H-YLV[Cya]GERGY-OH): the IC50 amounted to 3240 nM.

Still in this experiment, the particulars now being: read-out: A*02:01 binding (IC50 nM) Modified.
Regarding `CC(C)C[C@H](NC(=O)[C@@H](N)Cc1ccc(O)cc1)C(=O)N[C@H](C(=O)N[C@@H](CS)C(=O)NCC(=O)N[C@@H](CCC(=O)O)C(=O)N[C@@H](CCCNC(N)=O)C(=O)NCC(=O)N[C@@H](Cc1ccccc1)C(=O)N[C@@H](Cc1ccccc1)C(=O)O)C(C)C` (H-YLVCGE[Cit]GFF-OH), the IC50 was 2620 nM.

The experiment is the same for the next values; noted with them: read-out: A*02:01 binding (IC50 nM) WT.
Take HLVEALYLVC: the IC50 came to 692 nM.
As to MRLLPLLALL, the IC50 came to 10 nM.
For GSHLVEALYL, the IC50 was determined as 1770 nM.
For the compound FVNQHLCGSH, the IC50 was determined as 13200 nM.
For LCGSHLVEA, the IC50 amounted to 1350 nM.

Staying with this experiment, now noted: read-out: IC50 nM, target assay A*02:01.
VMNILLQYV [reference compound]: the IC50 was found to be 2020 nM.
Take FIQVYEVERA [reference compound]: the IC50 was 7020 nM.
On the same count and under the same terms, with ALGDLFQSI [reference compound] the figure was 76 nM; with MVWESGCTV [reference compound], 126 nM; with FLQDVMNIL [reference compound], 70 nM.
Still for that read-out and setting: with LLDVAPLSL [reference compound] the figure was 51 nM; with RLLCALTSL [reference compound], 91 nM.
Turning to LASEKVYTI [reference compound], the IC50 came out at 1250 nM.
`CC(C)C[C@H](NC(=O)[C@@H](N)CCCNC(=N)N)C(=O)N[C@@H](CCCNC(=N)N)C(=O)N1CCC[C@H]1C(=O)N[C@@H](CC(C)C)C(=O)N[C@@H](CS)C(=O)N[C@@H](CS)C(=O)N[C@H](C(=O)N[C@@H](C)C(=O)O)[C@@H](C)O` [reference compound] (H-RLRPLCCTA-OH): the IC50 worked out at 8230 nM.
As for TIADFWQMV [reference compound], the IC50 was found to be 4690 nM.
On to VLHELFGMDI [reference compound], for which the IC50 is 287 nM.
“WLLPLWAAL [WLLPLWAAL, reference compound]”: the IC50 was found to be 4.2 nM.
For TMHSLTIQM [reference compound], the IC50 is 104 nM.
On to VLVEGSTRI [reference compound], for which the IC50 came to 17200 nM.
With LLLLDVAPL [reference compound], the IC50 was determined as 10 nM.
For HLASEKVYAI [reference compound], the IC50 amounted to 4060 nM.
On the same count and under the same terms, to SMPQGTFPV [reference compound] belongs 631 nM; to FMTSSWWRA [reference compound], 101 nM; to “SISVLISAL [SISVLISAL, reference compound]”, 1550 nM.
STVASWLGPV [reference compound]: the IC50 was 9230 nM.
On the same count and under the same terms, to ILVLASTITI [reference compound] belongs 675 nM.

The same experiment, now with this note: unmodified (WT) insulin peptide; competition binding assay; a dash indicates IC50 >40,000 nM; read-out: A*02:01 binding (IC50 nM) WT.
On to GSLQKRGIVE [GSLQKRGIVE], for which the IC50 was greater than 40000 nM.
TPKTRREAE: the IC50 was greater than 40000 nM.
In the case of TPKTRREAED [TPKTRREAED], the IC50 was greater than 40000 nM.
The same measure, in the same setting: with HLCGSHLVE the figure was greater than 40000 nM.

Still in this experiment, the particulars now being: unmodified (wild type) insulin-derived peptide; radiolabeled ligand competition, purified MHC, two-day incubation, three or more independent experiments; read-out: A*02:01 binding, WT.
As to LWMRLLPLLA, the IC50 stood at 406 nM.
